Measurements taken from patent US11339130B1 (Blade Therapeutics, Inc., priority 2016, dated 2022).
Like-named read-outs stand apart in the source and are kept apart here.

What was measured:
Assay type in all cases: biochemical
Human Calpain 2/NS1 = biological target: T1, Human Calpain 2/NS1 (Homo sapiens, UniProt P17655); assay: Calpain inhibition continuous fluorescence (FRET) assay, Human Calpain 2/NS1; settings: read-out: Human Calpain 2/NS1 IC50
T1 sequence (P17655 1-700): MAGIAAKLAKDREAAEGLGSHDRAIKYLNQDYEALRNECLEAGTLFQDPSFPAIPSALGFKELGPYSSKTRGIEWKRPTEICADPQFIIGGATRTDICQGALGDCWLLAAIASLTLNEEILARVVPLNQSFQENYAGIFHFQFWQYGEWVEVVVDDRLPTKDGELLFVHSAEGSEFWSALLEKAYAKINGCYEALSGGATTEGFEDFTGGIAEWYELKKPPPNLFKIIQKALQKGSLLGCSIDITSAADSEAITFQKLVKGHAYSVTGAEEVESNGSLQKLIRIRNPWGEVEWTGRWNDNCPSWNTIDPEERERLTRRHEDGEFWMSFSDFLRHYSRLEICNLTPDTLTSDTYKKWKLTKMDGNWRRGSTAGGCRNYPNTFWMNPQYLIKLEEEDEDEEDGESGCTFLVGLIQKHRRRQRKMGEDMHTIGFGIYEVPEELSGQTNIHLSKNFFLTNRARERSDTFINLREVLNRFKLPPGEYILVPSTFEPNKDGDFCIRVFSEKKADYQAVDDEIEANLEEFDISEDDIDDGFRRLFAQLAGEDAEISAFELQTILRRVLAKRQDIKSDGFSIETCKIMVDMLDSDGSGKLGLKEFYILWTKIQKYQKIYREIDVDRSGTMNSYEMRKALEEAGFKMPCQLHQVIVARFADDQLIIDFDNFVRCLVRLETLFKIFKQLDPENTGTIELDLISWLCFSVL
T1 sequence (P04632 1-268 partner): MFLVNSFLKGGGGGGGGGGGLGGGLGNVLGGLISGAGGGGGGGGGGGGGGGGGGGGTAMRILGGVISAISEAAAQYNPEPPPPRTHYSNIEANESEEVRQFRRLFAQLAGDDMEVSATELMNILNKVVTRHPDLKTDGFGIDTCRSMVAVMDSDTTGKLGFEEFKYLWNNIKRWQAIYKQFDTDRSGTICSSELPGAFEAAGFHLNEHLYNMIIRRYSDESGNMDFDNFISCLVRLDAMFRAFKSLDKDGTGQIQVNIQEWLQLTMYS
Experimental: (§1) Calpain 1, 2, and 9 activity and inhibition thereof was assessed by means of a continuous fluorescence assay. The SensoLyte 520 Calpain substrate (Anaspec Inc) was optimized for detecting calpain activity. This substrate contains an internally quenched 5-FAM/QXL™ 520 FRET pair. Calpains 1, 2, and 9 cleave the FRET substrate into two separate fragments resulting in an increase of 5-FAM fluorescence that is proportional to calpain activity
(§2) Assays were typically setup in black 384-well plates using automated liquid handling as follows. Calpain assay base buffer typically contains 50 mM Tris, pH 7.5, 100 mM NaCl and 1 mM DTT. Inhibitors were serially diluted in DMSO and used to setup 2× mixtures with calpains in the aforementioned buffer. After incubation at ambient temperature (25C), the reaction was initiated by adding a 2× mix of the fluorescent peptide substrate and CaCl2) (required for in-situ calpain activation) in the same buffer. Reaction progress curve data were typically collected for 10 min using excitation/emission wavelengths of 490 nm/520 nm on SpectraMax i3× or the FLIPR-Tetra plate readers (Molecular Devices Inc). Reaction rates were calculated from progress curve slopes typically over 1-5 min. Dose response curves (rate vs. log inhibitor concentration) were typically fit to a 4-parameter logistic function to extract IC50 values.

Human Calpain 9/NS1 = biological target: T2, Human Calpain 9/NS1 (Homo sapiens, UniProt O14815); assay: Calpain inhibition continuous fluorescence (FRET) assay, Human Calpain 9/NS1; settings: read-out: Human Calpain 9/NS1 IC50
T2 sequence (O14815 1-690): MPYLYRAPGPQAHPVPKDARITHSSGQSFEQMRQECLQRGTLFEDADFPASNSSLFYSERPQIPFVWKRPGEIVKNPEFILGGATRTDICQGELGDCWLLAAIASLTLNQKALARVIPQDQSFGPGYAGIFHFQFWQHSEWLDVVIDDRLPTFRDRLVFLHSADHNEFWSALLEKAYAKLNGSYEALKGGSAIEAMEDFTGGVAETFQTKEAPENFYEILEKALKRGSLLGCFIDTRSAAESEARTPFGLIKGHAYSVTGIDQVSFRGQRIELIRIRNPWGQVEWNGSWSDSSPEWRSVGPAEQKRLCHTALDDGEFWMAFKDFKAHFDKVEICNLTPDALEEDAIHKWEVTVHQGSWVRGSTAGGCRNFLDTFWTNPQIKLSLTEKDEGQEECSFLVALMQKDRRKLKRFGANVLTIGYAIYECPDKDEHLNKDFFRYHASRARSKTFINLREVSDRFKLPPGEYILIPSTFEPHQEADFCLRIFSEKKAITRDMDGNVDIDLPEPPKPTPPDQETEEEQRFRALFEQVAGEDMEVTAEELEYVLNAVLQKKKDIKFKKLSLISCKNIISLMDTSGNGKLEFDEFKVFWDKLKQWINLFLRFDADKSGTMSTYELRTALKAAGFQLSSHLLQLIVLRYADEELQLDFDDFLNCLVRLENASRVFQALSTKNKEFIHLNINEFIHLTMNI
T2 sequence (P04632 1-268 partner): T1 sequence (P04632 1-268 partner)
Experimental: as §1, §2

Human Calpain 1/NS1 = biological target: T3, Human Calpain 1/NS1 (Homo sapiens, UniProt P07384); assay: Calpain inhibition continuous fluorescence (FRET) assay, Human Calpain 1/NS1; settings: read-out: Human Calpain 1/NS1 IC50
T3 sequence (P07384 1-714): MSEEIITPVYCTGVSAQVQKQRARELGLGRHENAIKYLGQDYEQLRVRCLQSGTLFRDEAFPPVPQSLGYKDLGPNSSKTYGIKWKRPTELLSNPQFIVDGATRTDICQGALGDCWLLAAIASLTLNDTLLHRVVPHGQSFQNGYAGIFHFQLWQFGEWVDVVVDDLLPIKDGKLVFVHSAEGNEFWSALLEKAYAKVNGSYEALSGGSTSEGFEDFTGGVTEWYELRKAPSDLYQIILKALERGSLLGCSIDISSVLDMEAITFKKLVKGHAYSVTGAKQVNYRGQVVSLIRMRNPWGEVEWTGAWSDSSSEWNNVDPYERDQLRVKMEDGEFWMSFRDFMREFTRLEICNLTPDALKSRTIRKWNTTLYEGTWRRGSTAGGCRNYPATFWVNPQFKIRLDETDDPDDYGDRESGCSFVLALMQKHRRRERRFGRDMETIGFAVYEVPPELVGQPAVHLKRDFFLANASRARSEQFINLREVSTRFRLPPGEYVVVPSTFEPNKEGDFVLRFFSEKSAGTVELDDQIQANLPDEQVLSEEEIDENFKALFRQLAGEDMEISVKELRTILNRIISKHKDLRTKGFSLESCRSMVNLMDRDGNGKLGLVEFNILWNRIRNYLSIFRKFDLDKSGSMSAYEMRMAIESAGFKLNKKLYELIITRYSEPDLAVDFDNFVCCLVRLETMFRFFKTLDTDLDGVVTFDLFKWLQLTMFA
T3 sequence (P04632 1-268 partner): T1 sequence (P04632 1-268 partner)
Experimental: as §1, §2

Compound | IC50 (Human Calpain 2/NS1) [µM] | IC50 (Human Calpain 9/NS1) [µM] | IC50 (Human Calpain 1/NS1) [µM] | IC50 (Human Calpain 2/NS1; Column B) [µM] | IC50 (Human Calpain 9/NS1; Column C) [µM] | IC50 (Human Calpain 1/NS1; Column A) [µM]
Cn1cc(C(=O)NC(Cc2ccccc2)C(=O)C(N)=O)c(-c2coc3ccccc23)n1 (stereo not drawn) [Compound 628, N-(4-amino-3,4-dioxo-1-phenylbutan-2-yl)-3-(benzofuran-3-yl)-1-methyl-1H-pyrazole-4-carboxamide] | < 3 | < 3 | < 3 | – | – | –
NC(=O)C(=O)[C@H](Cc1ccccc1)NC(=O)c1c(F)cnn1-c1ccccc1 [Compound 258, (S)—N-(4-amino-3,4-dioxo-1-phenylbutan-2-yl)-4-fluoro-1-phenyl-1H-pyrazole-5-carboxamide] | – | – | – | < 3 | < 3 | < 3
C=CCOc1ccc(C[C@@H](C=O)NC(=O)c2cc(C)nn2-c2ccccn2)cc1 [Compound 93, (S)—N-(1-(4-(allyloxy)phenyl)-3-oxopropan-2-yl)-3-methyl-1-(pyridin-2-yl)-1H-pyrazole-5-carboxamide] | – | – | – | < 3 | < 3 | < 3
Cn1cc(C(=O)NC(Cc2ccccc2)C(=O)C(N)=O)c(-c2ccc(C(F)(F)F)nc2)n1 (stereo not drawn) [Compound 315, N-(4-amino-3,4-dioxo-1-phenylbutan-2-yl)-1-methyl-3-(6-(trifluoromethyl)pyridin-3-yl)-1H-pyrazole-4-carboxamide] | 3 to 10 | < 3 | 3 to 10 | – | – | –
Cc1noc(-c2ccccc2)c1C(=O)N[C@@H](Cc1ccccc1)C(=O)C(=O)NCc1cccnc1 [Compound 224, (S)—N-(3,4-dioxo-1-phenyl-4-((pyridin-3-ylmethyl)amino)butan-2-yl)-3-methyl-5-phenylisoxazole-4-carboxamide] | – | – | – | 3 to 10 | 3 to 10 | < 3
N#Cc1cc(C(=O)N[C@@H](Cc2ccccc2)C(=O)C(N)=O)nn1-c1ccccc1 [Compound 273, (S)—N-(4-amino-3,4-dioxo-1-phenylbutan-2-yl)-5-cyano-1-phenyl-1H-pyrazole-3-carboxamide] | – | – | – | < 3 | < 3 | > 10
Cc1cc(C(=O)N[C@@H](Cc2ccccc2)C(=O)C(=O)NC2CC2)n(-c2cncc3ccccc23)n1 [Compound 134, (S)—N-(4-(cyclopropylamino)-3,4-dioxo-1-phenylbutan-2-yl)-1-(isoquinolin-4-yl)-3-methyl-1H-pyrazole-5-carboxamide] | – | – | – | 3 to 10 | 3 to 10 | 3 to 10
Cn1ncc(C(=O)N[C@@H](Cc2ccccc2)C(=O)C(N)=O)c1-c1ncccn1 [Compound 191, (S)—N-(4-amino-3,4-dioxo-1-phenylbutan-2-yl)-1-methyl-5-(pyrimidin-2-yl)-1H-pyrazole-4-carboxamide] | – | – | – | < 3 | < 3 | < 3
Cn1cc(-c2ccccc2)c(C(=O)N[C@@H](Cc2ccccc2)C(=O)C(N)=O)n1 [Compound 241, (S)—N-(4-amino-3,4-dioxo-1-phenylbutan-2-yl)-1-methyl-4-phenyl-1H-pyrazole-3-carboxamide] | – | – | – | < 3 | < 3 | < 3
O=C[C@H](Cc1ccccc1)NC(=O)c1cccc2nc(-c3ccccc3)[nH]c12 [Compound 92, (S)—N-(1-oxo-3-phenylpropan-2-yl)-2-phenyl-1H-benzo[D]imidazole-7-carboxamide] | – | – | – | 3 to 10 | < 3 | 3 to 10
Cc1cc(C(=O)N[C@@H](Cc2ccccc2)C(=O)C(=O)NC2CC2)n(-c2cccnc2)n1 [Compound 132, (S)—N-(4-(cyclopropylamino)-3,4-dioxo-1-phenylbutan-2-yl)-3-methyl-1-(pyridin-3-yl)-1H-pyrazole-5-carboxamide] | – | – | – | < 3 | < 3 | < 3
O=C(NC1CC1)C(=O)[C@H](Cc1ccccc1)NC(=O)c1scnc1-c1ccccn1 [Compound 61] | – | – | – | < 3 | < 3 | < 3
Cn1nnc(C(=O)N[C@@H](Cc2ccccc2)C(=O)C(N)=O)c1-c1ccccc1 [Compound 260, (S)—N-(4-amino-3,4-dioxo-1-phenylbutan-2-yl)-1-methyl-5-phenyl-1H-1,2,3-triazole-4-carboxamide] | – | – | – | < 3 | < 3 | < 3
Cn1cc(C(=O)NC(Cc2cccc(C(F)(F)F)c2)C(=O)C(N)=O)c(-c2ccccc2F)n1 (stereo not drawn) [Compound 623, N-(4-amino-3,4-dioxo-1-(3-(trifluoromethyl)phenyl)butan-2-yl)-3-(2-fluorophenyl)-1-methy 1-1H-pyrazole-4-carboxamide] | < 3 | < 3 | < 3 | – | – | –
Cc1cc(C(F)(F)F)cc(-n2nc(C)cc2C(=O)N[C@@H](Cc2ccccc2)C(=O)C(N)=O)n1 [Compound 234, (S)—N-(4-amino-3,4-dioxo-1-phenylbutan-2-yl)-3-methyl-1-(6-methyl-4-(trifluoromethyl)pyridin-2-yl)-1H-pyrazole-5-carboxamide] | – | – | – | < 3 | < 3 | < 3
CC[C@H](NC(=O)c1c(C)noc1-c1ccccc1)C(=O)C(N)=O [Compound 47] | – | – | – | < 3 | < 3 | < 3
N#Cc1cc(C(=O)N[C@@H](Cc2ccccc2)C(=O)C(N)=O)n(-c2ccccc2)n1 [Compound 272, (S)—N-(4-amino-3,4-dioxo-1-phenylbutan-2-yl)-3-cyano-1-phenyl-1H-pyrazole-5-carboxamide] | – | – | – | 3 to 10 | 3 to 10 | > 10
